Results on one molecule are retold here after publication PMC10167756 (Journal of medicinal chemistry, 2023).

Structures can show the parent of a compound that is named as a salt.

In the experiment the target is T1, Spns2 (Spinster homolog 2) (Mus musculus, UniProt Q91VM4).
T1 sequence (Q91VM4 1-549): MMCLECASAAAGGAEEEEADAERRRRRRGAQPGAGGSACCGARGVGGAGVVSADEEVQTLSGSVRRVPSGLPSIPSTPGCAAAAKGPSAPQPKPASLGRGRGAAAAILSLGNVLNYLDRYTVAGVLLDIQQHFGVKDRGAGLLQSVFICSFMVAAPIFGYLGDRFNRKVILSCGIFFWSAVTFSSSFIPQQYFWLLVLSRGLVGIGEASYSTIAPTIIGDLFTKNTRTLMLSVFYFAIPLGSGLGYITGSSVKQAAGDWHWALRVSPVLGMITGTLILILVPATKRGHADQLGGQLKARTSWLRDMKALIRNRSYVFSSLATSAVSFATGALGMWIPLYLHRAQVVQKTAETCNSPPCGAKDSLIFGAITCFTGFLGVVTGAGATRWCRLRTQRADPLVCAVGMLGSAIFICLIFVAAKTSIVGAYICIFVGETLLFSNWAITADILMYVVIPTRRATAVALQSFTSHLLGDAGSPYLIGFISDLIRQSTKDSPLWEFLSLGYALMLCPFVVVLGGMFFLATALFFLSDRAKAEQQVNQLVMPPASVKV
The experiment can be described thus: S1P release assay in mouse Spns2-transfected HeLa cells, % inhibition at […]. In kind it is cell-based.

As a reminder, the inhibition is the share of the control response that was lost under treatment. `CCCCCCCCCc1ccc2oc(NC[C@H]3CCNC3)nc2c1` [35p, (S)-5-nonyl-N-(pyrrolidin-3-ylmethyl)benzo[d]oxazol-2-amine hydrochloride] showed an inhibition at 0.3 µM of 50 ± 4%.
